How the values were obtained:
[1] = target: heteromeric (CNGA1 + CNGB1) rod CNG channels (Bos taurus, UniProt Q00194+Q28181); details: ref Chen et al., 1993; cited from earlier work
[2] = target: T1, homomeric (CNGA1) rod CNG channels (Bos taurus, UniProt Q00194); details: cited from earlier work
T1 sequence (Q00194 1-690): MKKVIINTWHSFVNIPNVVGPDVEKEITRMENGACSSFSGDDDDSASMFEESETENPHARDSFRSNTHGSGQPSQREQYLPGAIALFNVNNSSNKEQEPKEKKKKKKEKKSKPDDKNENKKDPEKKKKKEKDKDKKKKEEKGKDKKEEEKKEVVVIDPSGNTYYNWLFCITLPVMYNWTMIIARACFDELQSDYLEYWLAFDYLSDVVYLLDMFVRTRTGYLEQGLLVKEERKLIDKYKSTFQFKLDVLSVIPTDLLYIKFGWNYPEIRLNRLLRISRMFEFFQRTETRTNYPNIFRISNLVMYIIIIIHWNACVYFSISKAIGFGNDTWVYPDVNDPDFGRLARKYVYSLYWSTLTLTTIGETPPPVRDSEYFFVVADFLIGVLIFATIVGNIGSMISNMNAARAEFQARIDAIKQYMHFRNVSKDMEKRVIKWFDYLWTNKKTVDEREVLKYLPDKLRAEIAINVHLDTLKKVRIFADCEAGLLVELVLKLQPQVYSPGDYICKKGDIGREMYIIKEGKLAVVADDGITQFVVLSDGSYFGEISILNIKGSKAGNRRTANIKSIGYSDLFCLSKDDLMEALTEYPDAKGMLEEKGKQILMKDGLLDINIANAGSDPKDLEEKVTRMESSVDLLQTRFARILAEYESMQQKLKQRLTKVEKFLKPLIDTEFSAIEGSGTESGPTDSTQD

[3] = target: T1, homomeric (CNGA1) rod CNG channels; assay type: cell-based, bovine
[4] = model fit of cGMP dose–response without ATR

Chain of heteromeric (CNGA1 + CNGB1) rod CNG channels (Q28181 whole entry, one chain of several): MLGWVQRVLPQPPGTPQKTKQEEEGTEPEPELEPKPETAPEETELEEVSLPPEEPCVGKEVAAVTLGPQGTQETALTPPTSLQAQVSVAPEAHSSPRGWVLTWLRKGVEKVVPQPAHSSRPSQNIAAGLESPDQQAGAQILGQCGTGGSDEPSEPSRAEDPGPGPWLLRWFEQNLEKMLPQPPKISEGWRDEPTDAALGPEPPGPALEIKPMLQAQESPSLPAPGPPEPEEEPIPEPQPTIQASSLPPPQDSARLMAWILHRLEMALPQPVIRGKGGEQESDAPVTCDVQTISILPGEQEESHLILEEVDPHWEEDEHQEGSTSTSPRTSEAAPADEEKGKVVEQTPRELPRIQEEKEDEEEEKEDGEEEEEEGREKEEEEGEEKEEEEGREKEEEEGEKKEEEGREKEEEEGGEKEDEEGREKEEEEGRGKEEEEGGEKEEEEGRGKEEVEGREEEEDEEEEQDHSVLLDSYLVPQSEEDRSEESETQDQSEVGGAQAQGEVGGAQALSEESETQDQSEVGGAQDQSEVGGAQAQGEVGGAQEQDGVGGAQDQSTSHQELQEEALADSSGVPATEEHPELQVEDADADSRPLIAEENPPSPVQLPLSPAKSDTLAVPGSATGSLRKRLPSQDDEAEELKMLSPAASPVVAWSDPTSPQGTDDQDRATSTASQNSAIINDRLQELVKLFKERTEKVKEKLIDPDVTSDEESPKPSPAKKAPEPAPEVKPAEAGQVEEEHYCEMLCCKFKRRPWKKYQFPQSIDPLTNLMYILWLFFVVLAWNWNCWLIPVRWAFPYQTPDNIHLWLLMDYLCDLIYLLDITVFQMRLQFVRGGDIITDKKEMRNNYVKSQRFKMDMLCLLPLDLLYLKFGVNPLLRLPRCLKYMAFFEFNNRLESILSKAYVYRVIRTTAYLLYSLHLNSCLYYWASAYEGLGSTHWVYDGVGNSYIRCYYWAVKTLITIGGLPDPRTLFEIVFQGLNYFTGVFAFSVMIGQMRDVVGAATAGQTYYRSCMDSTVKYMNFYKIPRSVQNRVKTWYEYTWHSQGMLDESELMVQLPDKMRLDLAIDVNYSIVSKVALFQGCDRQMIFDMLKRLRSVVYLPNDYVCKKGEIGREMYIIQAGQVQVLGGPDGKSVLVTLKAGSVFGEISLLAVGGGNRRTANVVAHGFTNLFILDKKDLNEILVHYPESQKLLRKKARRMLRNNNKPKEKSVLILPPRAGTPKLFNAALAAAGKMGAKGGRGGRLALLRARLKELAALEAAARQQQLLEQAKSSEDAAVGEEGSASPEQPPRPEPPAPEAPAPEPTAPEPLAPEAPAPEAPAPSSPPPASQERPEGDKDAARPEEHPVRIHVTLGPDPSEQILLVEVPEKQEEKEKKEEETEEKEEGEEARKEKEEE

COc1ccc([C@H]2Sc3ccccc3N(CCN(C)C)C(=O)[C@H]2OC(C)=O)cc1 (relative stereo) [l-cis-diltiazem]
block of heteromeric channels [1]: sensitively blocks | effect on homomeric channels ([2]; ref Chen et al., 1993): little effect

CC1=C(/C=C/C(C)=C/C=C/C(C)=C/CO)C(C)(C)CCC1 [all-trans-retinol]
inhibition of the rod CNG channel ([2]; ref Dean et al., 2002): inhibited quite well

Nc1nc2c(ncn2[C@@H]2O[C@@H]3COP(=O)(O)O[C@H]3[C@H]2O)c(=O)[nH]1 [cGMP]
open probability predicted by KcN and L ([3]; 2 mM cGMP, no ATR): 0.95 | KcN, association constant for cyclic nucleotide binding [3, 4]: 7,200 M^−1 | L, equilibrium constant for the allosteric opening transition of the fully liganded channel [3, 4]: 19.8

— PMC2234497 (The Journal of General Physiology, 2004)
